The results in this text go back to patent US8435978B2, “Substituted sulfonamide compounds” (Gruenenthal GmbH, priority 2006, dated 2013).

The assay relates to Bradykinin Receptor 1 (B1R)-mediated formation of IL-6 in IMR-90 fibroblasts. The experiment in a line: Inhibition of the B1R-mediated formation of IL-6 in IMR-90 fibroblasts (IL-6 ELISA). The format is cell-based, human. The following applies: antagonist 10 μM. From the text:
The pro-inflammatory cytokines TNFα (or IL-1) lead in various cell types, such as, for example, fibroblasts, to an activation, which brings about inter alia enhanced expression of B1R. Subsequent stimulation of these cells with a B1R agonist results in the formation of further pro-inflammatory cytokines, such as, for example, IL-6. The chronification of inflammations is thereby promoted. Treatment with a B1R antagonist should lead to inhibition of the B1R agonist-induced IL-6 formation. By way of example, a B1R antagonist identified in the FLIPR assay was tested in this respect.
The human fibroblast cell line IMR-90 (ATCC, CCL-186) was passaged in culture medium (Ham's F12 nutrient mixture, Gibco Invitrogen GmbH, Karlsruhe Germany with 10% FBS, fetal bovine serum, Gibco, Invitrogen GmbH, Karlsruhe Germany; 0.1 mM non-essential amino acids, Gibco, 11140-035, 1 mM sodium pyruvate, Euro Clone, ECM0542D; 1.5 g/l sodium bicarbonate, Euro Clone, ECM0980D) on 80 cm^2 bottles (Nunc; 178905) (ratio:1:2 to 1:6; medium replaced every 3-4 days) and plated out for experiments on 96-well plates (Greiner bio-one; No. 655180) with 1×10^5 cells per well. The cells are incubated overnight at 37° C. and 5% CO2.
For activation with TNFα (human, recombinant, expressed in E. coli, SIGMA-ALDRICH T6674, 10 ng/ml) alone or TNFα combined with the human B1R agonist Lys-Des-Arg^9-bradykinin (Lys-Des-Arg^9-BK), the IMR-90 fibroblasts were incubated overnight at 37° C. and 5% CO2 in culture medium. The final concentrations of Lys-Des-Arg^9-BK were 1000 nM or 10 nM. Some IMR-90 stimulation batches additionally contained the B1R antagonist of Example 8 in a final concentration of 10 μM. 24 hours after activation, in each case 150 μl of culture medium were removed from all the different stimulation batches and were transferred to a new plate and frozen. After thawing of the supernatants, the IL-6 content was determined by means of a commercially available IL-6 Elisa.
ELISA Assay (Procedure, Modified According the Manufacturer's Specifications):
Elisa kit: from: BIOSOURCE; CytoSets™, Art. No.: CHC 1264
The above-described processes were carried out with Example compound 8.

[1] abbreviates: TNFα 10 ng/ml, 24 hours after activation.

Take `COc1cc(C)c(S(=O)(=O)N2CCCCC2COCC(=O)N2CCN(C3CCN(C)CC3)CC2)c(C)c1` (centres unmarked) [Example 8, 2-[1-(4-methoxy-2,6-dimethyl-phenylsulfonyl)-piperidin-2-ylmethoxy]-1-[4-(1-methyl-piperidin-4-yl)-piperazin-1-yl]-ethanone]: the “inhibition of the activation of IL-6 formation” value (TNFα + relatively high dose of Lys-Des-Arg^9-BK (1000 nM)) is “still partially inhibited”. For the same molecule, for the setting “TNFα + relatively low dose of Lys-Des-Arg^9-BK (10 nM)”, the “inhibition of the activation of IL-6 formation” value was “eliminated almost completely”. In addition, under setting [1], the “Production of IL-6 (pg/ml) by IMR-90 fibroblasts, TNFα + Lys-Des-Arg^9-BK (10 nM)” value is 119 pg/mL; the “Production of IL-6 (pg/ml) by IMR-90 fibroblasts, TNFα + Lys-Des-Arg^9-BK (1000 nM)” value was determined as 483 pg/mL; the “Production of IL-6 (pg/ml) by IMR-90 fibroblasts, TNFα alone” value amounted to 136 pg/mL.
